The target of the assay is Dopamine receptor (Homo sapiens) (UniProt P14416+P35462+P21918+P21917+P21728).

Description: Compound was evaluated for its binding affinity towards Dopamine receptor

In turn, `CC(C)(C)[C@]1(O)CCN2C[C@@H](c3ccccc3)c3ccccc3[C@@H]2C1` came in with a pKa of 7.03.

`c1ccc([C@H]2CN3CCC[C@H]3c3ccccc32)cc1`: the pKa stood at 9.12.

Values taken from ChEMBL document CHEMBL1122965, “The pKa of butaclamol and the mode of butaclamol binding to central dopamine receptors” (J Med Chem, 1985).
